Test results from US11312715B2, “Fused ring derivative as A2A receptor inhibitor” (CSTONE PHARMACEUTICALS (SUZHOU) CO., LTD., priority 2017, dated 2022).

Experiments:
[1] = target: T1, Human Adenosine A2a Receptor (Homo sapiens, UniProt P29274); experiment: Human adenosine A2a receptor calcium flow detection experiment (FLIPR, Fluo-4, NECA agonist); format: cell-based; details: A2a stable CHO cell line, antagonist mode vs NECA at EC80
T1 construct: host or cells: CHO
Protocol: Human Adenosine A2a Receptor Calcium Flow Detection Experiment
A2a stable cell line was constructed by Shanghai Wuxi Apptec, and the host cell was CHO.
Fluo-4 Direct kit (Invitrogen, article number: F10471). After the fluorescence detection reagent (specifically binding to calcium ions and causing an increase of fluorescence signal) in the kit was incubated with the cells for an appropriate time, the compound was added to stimulate the cells and induced changes in intracellular calcium flow, thus causing the changes in fluorescence signal, which can reflect the intensity of the agonistic or inhibiting activity of the compounds.
F12+10% fetal bovine serum+geneticin 300 μg/mL+blasticidin 2 μg/mL
Hanks balanced salt buffer (Invitrogen)+20 mM HEPES, which was prepared before each use
The compounds to be tested were dissolved in DMSO to prepare a 10 mM mother liquor. The test compound was diluted to 0.2 mM with DMSO, and the reference compound CGS-15943 was diluted to 0.015 mM with DMSO. Then a 10-point 3-fold serial dilution was performed with ECHO, then 900 nL of the dilutions was transferred to a compound plate (Greiner-781280), and 30 μL of the compound dilution buffer was added. The final initial concentration of the compounds to be tested was 1 μM and that of CGS-15943 was 0.075 μM.
Frozen A2A cells were suspended to 1×10^6 cells/mL with the culture medium after resuscitation, seeded with 20 μL/well into a 384-well polylysine coated cell plate (Greiner-781946), then incubated under 5% CO2 at 37° C. overnight.
The cell plate prepared the day before was taken out from the incubator, 20 μL 2×Fluo-4 Direct™ buffer was added into each cell, then incubated under 5% CO2 at 37° C. in an incubator for 50 minutes, and was allowed to stand at room temperature for 10 minutes.
Dilution of the agonist NECA: NECA with an initial concentration of 0.15 mM was 3-fold serially diluted with Echo to prepare 10 dilutions, and then 900 nL of the dilutions was transferred to the corresponding compound plate; then 30 μL of the compound dilution buffer was added into the corresponding compound plate. The final initial concentration was 750 nM.
FLIPR instrument and software were performed according to the set program, 10 μL of the compound dilution buffer was added into the cell plate, and the fluorescence signal was read. 10 μL of the agonist reference compound with a predetermined concentration was added to the cell plate and the fluorescence signal was read. After reading, the data were exported by “Max-Min” and “Read 90 to Maximum allowed” methods in the software, the EC80 on A2A cell line was calculated, and 6×EC80 concentration of agonist was prepared. The agonist reference compound with a concentration of 6×EC80 was prepared with buffer salt solution, and 30 μL/well was aliquoted into the corresponding compound plate for later use.
FLIPR instrument and software were performed according to the set program, 10 μL of test compounds and reference compound with a predetermined concentration was added into the cell plate, and the fluorescence signal was read. 10 μL of the agonist reference compound with a concentration of 6×EC80 was added into the cell plate and the fluorescence signal was read. For the agonist detection of the compounds, the data were exported by “Max-Min” and “Read 1 to 90” methods in the software. For the antagonist detection of the compounds, the data were exported by “Max-Min” and “Read 90 to Maximum allowed” methods in the software. The data were analyzed by GraphPad Prism 5.0 and the IC50 value of the test compounds was calculated.

[2] = Pharmacokinetic evaluation after single intravenous injection and single oral administration in mice; format: in vivo; details: mouse, female Balb/C mice, plasma, single IV / single PO study; for clearance: read-out: Clearance rate; for AUC: read-out: Concentration integral AUC; for half-life: read-out: Half-life T1/2 (converted); for bioavailability: read-out: Bioavailability F
Protocol: Experimental materials: Balb/C mice (female, 15-30 g, 7-9 weeks old, Shanghai Linchang) were used.
Experimental method: The pharmacokinetic characteristics of the compound after intravenous injection and oral administration were tested on rodents by standard scheme, in the experiment, the candidate compounds were prepared into clear solutions and administrated to mice by single intravenous injection and single oral administration. Intravenous injection (IV) menstruum was a mixed solvent of 5% DMSO/5% polyethylene glycol hydroxystearate/90% water, and oral (PO) menstruum was a mixed solvent of 1% Tween 80, 9% PEG400 and 90% water (pH=3). The whole blood sample within 48 hours was collected, centrifuged at 3000 g at 4° C. for 15 minutes, and the supernatant was separated to obtain the plasma sample. An acetonitrile solution containing internal standard with a volume of 20 times that of the plasma sample was added to precipitate protein, the supernatant was centrifuged and an equal volume of water was added, then the supernatant was taken for injection. The blood drug concentration was quantitatively analyzed by LC-MS/MS analysis method, and the pharmacokinetic parameters such as peak concentration, peak time, clearance rate, half-life, area under the drug concentration-time curve, bioavailability, etc. were calculated.

[3] = system: mouse colon cancer CT26 cells; experiment: In vivo pharmacodynamic test, CT26 subcutaneous tumor model, alone or combined with CS1003; set-up: species or system BALB/C mice; details: CS1003 1 mg/kg intraperitoneal, Day 7, 10, 13, 16
Protocol: Experimental materials: BALB/C mice (female); mouse colon cancer CT26 cells (Typical Culture Preservation Commission cell bank, Chinese Academy of Sciences) were cultured in vitro in monolayer with RPMI-1640 medium containing 10% fetal bovine serum in a 37° C., 5% CO2 incubator. Trypsin-EDTA was used for routine digestion and passage. When the cells were in exponential growth phase and the saturation was 80%-90%, the cells were collected and counted.
Compound preparation: Embodiment 19 was weighted and added into the menstruum (10% PEG400+90% (10% Cremophor aqueous solution)) to prepare samples of 2.5 mg/mL, 5 mg/mL and 10 mg/mL respectively. 72 μL CS1003 (PD-1 antibody) solution (25 mg/mL) was taken and 1.728 mL Dulbecco's phosphate buffer (DPBS) was added to prepare a 1 mg/mL solution, then 16.2 mL DPBS was added to prepare a 0.1 mg/mL clear solution.
Experimental operation: the cells were resuspended in Dulbecco's phosphate buffer at a density of 3×10^6 cells/mL. 0.1 mL DPBS (containing 3×10^5 CT26 cells) was subcutaneously inoculated on the right back of each mouse. On the day of inoculation, the mice were randomly divided into groups with 9 mice each group according to the weight of the mice, then administration was started and continued for 20 days. During the whole experiment, the animals were weighed and the animal's health was monitored every day, in case of any special situation, the person in charge of the relevant project would be informed in time and the corresponding records would be made. Tumor diameter was measured twice a week with a vernier caliper. The calculation formula of the tumor volume was: V=0.5×a×b^2, wherein a and b represent the long and short diameters of the tumor respectively.
The antitumor effect of the compounds was evaluated by GI (%) or relative tumor proliferation rate T/C (%). Relative tumor proliferation rate T/C (%)=Vt/VC×100% (Vt: average tumor volume of treatment group; Vc: average tumor volume of negative control group). Vt and VC were the data on the same day. GI (%), tumor inhibition rate. GI (%)=1−Vt/VC×100%.
Statistical analysis was conducted using SPSS software based on the relative tumor volume and tumor weight at the end of the experiment. […] P<0.05 was considered as significant difference.

T1 sequence (P29274 whole entry): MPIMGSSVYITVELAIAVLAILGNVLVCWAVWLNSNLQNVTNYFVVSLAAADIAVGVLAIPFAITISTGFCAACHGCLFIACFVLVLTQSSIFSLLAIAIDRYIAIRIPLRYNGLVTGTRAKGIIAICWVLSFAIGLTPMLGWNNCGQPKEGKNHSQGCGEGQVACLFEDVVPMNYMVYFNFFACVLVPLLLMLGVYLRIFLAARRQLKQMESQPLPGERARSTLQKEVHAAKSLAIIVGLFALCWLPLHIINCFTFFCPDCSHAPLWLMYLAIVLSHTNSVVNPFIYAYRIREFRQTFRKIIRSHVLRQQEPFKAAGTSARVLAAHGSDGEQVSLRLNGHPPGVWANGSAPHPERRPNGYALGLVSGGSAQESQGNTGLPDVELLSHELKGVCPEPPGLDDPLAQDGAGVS

## Cc1cc(-c2c(-c3ccc(F)cc3)nc(N)c3cncnc23)cc(Cl)n1 [Embodiment 25]
[1]
  IC50: 0.89 nM

## Nc1nc(-c2ccc(F)cc2)c(-c2ccc3ncnn3c2)c2nccnc12 [Embodiment 6]
[2]
  clearance: 5.87 mL/min/kg
  AUC: 24.1 µM·h
  half-life: 49.2 min
[1]
  IC50: 1.14 nM

## Cc1ccc(-c2nc(N)c3nccnc3c2-c2ccc3ncnn3c2)o1 [Embodiment 31]
[1]
  IC50: 0.58 nM

## Nc1nc(-c2ccc(F)cc2)c(-c2ccc3[nH]nc(Cl)c3c2)c2nccnc12 [Embodiment 22]
[1]
  IC50: 38 nM

## Cc1cc(-c2c(-c3ccc(F)cc3)nc(N)c3ncccc23)cc(Cl)n1 [Embodiment 24]
[1]
  IC50: 5.52 nM

## Nc1nc(-c2ccc(F)cc2)c(-c2ccc3ncccc3c2)c2nccnc12 [Embodiment 4]
[1]
  IC50: 0.92 nM

## Nc1nc(-c2ccc(F)cc2)c(-c2ccc3[nH]ncc3c2)c2nccnc12 [Embodiment 20]
[1]
  IC50: 3.32 nM

## Cc1cc(-c2c(-c3ccc(F)cc3)nc(N)c3nccnc23)cc(Cl)n1 [Embodiment 2]
[2]
  bioavailability: 76.2%
  clearance: 17.1 mL/min/kg
  AUC: 20.3 µM·h
  half-life: 46.8 min
[1]
  IC50: 1.73 nM

## Nc1nc(-c2ccc(F)cc2)c(-c2ccc3nccn3c2)c2nccnc12 [Embodiment 19]
[1]
  IC50: 0.54 nM

## Nc1ncc2cc(-c3c(-c4ccc(F)cc4)nc(N)c4nccnc34)ccc2n1 [Embodiment 16]
[1]
  IC50: 6.1 nM

## Nc1nc(-c2ccc(F)cc2)c(-c2cc(F)c3ncccc3c2)c2nccnc12 [Embodiment 17]
[1]
  IC50: 0.8 nM

## Nc1nc(-c2ccc(F)cc2)c(-c2cc(Cl)c3[nH]ncc3c2)c2nccnc12 [Embodiment 21]
[1]
  IC50: 0.82 nM

## Nc1nc(-c2ccc(F)cc2)c(-c2ccc3ncsc3c2)c2nccnc12 [Embodiment 23]
[1]
  IC50: 0.95 nM

## Nc1nc(-c2ccc(Cl)o2)c(-c2ccc3ncnn3c2)c2nccnc12 [Embodiment 30]
[1]
  IC50: 0.35 nM

## Cn1ccc(-c2nc(N)c3nccnc3c2-c2ccc3ncnn3c2)n1 [Embodiment 29]
[1]
  IC50: 3.18 nM

## Nc1nc(-c2ccc(F)cc2)c(-c2cc(Cl)c3ncnn3c2)c2nccnc12 [Embodiment 34]
[1]
  IC50: 1.04 nM

## Nc1nc(-c2ccc(F)cc2)c(-c2ccc3nncn3c2)c2nccnc12 [Embodiment 9]
[1]
  IC50: 15.6 nM

## Nc1nc(-c2ccc(F)cc2)c(-c2ccc3nccnc3c2)c2nccnc12 [Embodiment 5]
[1]
  IC50: 27.8 nM

## Nc1nc(-c2ccc(F)cc2)c(-c2ccc3ncnn3c2)c2ncccc12 [Embodiment 12]
[2]
  bioavailability: 95.4%
  clearance: 1.72 mL/min/kg
  AUC: 259 µM·h
  half-life: 197 min
[1]
  IC50: 1.56 nM

## Nc1nc(-c2ccc(F)cc2)c(-c2ccn3ncnc3c2)c2nccnc12 [Embodiment 7]
[1]
  IC50: 31.4 nM

## Nc1nc(-c2ccc(F)cc2)c(-c2ccc3nnccc3c2)c2nccnc12 [Embodiment 13]
[1]
  IC50: 9.4 nM

## Nc1nc(-c2ccccc2)c(-c2ccc3ncnn3c2)c2ncccc12 [Embodiment 27]
[1]
  IC50: 0.56 nM

## Nc1nc(-c2ccc(Cl)s2)c(-c2ccc3ncnn3c2)c2nccnc12 [Embodiment 32]
[1]
  IC50: 1.8 nM

## Nc1nc(-c2ccc(F)cc2)c(-c2cc(Cl)c3ncccc3c2)c2nccnc12 [Embodiment 26]
[1]
  IC50: 0.92 nM

## Cc1cc(-c2c(-c3ccc(F)cc3)nc(N)c3cccnc23)cc(Cl)n1 [Embodiment 11]
[1]
  IC50: 1.79 nM

## Nc1nc(-c2ccc(F)cc2)c(-c2cc(Cl)nc(C(F)(F)F)c2)c2nccnc12 [Embodiment 3]
[2]
  bioavailability: 69%
  clearance: 18.1 mL/min/kg
  AUC: 15.7 µM·h
  half-life: 83.4 min
[1]
  IC50: 9.46 nM

## Nc1nc(-c2ccc(F)cc2)c(-c2ccc3cnccc3c2)c2nccnc12 [Embodiment 18]
[1]
  IC50: 78.8 nM

## Nc1nc(-c2ccc(F)cc2)c(-c2ccc3ncncc3c2)c2nccnc12 [Embodiment 14]
[1]
  IC50: 0.76 nM

## Nc1nc(-c2ccc(F)cc2)c(-c2ccc3c(c2)CCCN3)c2nccnc12 [Embodiment 8]
[1]
  IC50: 26.8 nM

## Cc1cc(-c2c(-c3ccc(C)o3)nc(N)c3nccnc23)cc(Cl)n1 [Embodiment 28]
[1]
  IC50: 1.03 nM

## Cc1cc(-c2c(-c3ccc(Cl)s3)nc(N)c3nccnc23)cc(Cl)n1 [Embodiment 33]
[1]
  IC50: 24 nM

## Cc1cc(-c2c(-c3ccc(Cl)cc3)nc(N)c3nccnc23)cc(Cl)n1 [Embodiment 15]
[1]
  IC50: 3.84 nM

## Cc1cc(-c2c(-c3ccc(F)cc3)nc(N)c3nccnc23)cc(C(F)(F)F)n1 [Embodiment 10]
[1]
  IC50: 9.2 nM

## Cc1cc(-c2c(-c3ccc(F)cc3)nc(N)c3nccnc23)cc(C)n1 [Embodiment 1]
[2]
  bioavailability: 57.6%
  clearance: 16.5 mL/min/kg
  AUC: 16.7 µM·h
  half-life: 36 min
[1]
  IC50: 4.77 nM

B1: CS1003: full-length, fully humanized immunoglobulin G4 (IgG4) monoclonal antibody for PD-1 (antibody, chains of the INN, looked up, V domains shown)
VH: QVQLVQSGAEVKKPGSSVKVSCKASGFTFTTYYISWVRQAPGQGLEYLGYINMGSGGTNYNEKFKGRVTITADKSTSTAYMELSSLRSEDTAVYYCAIIGYFDYWGQGTMVTVSS
VL: DVVMTQSPLSLPVTLGQPASISCRSSQSLLDSDGGTYLYWFQQRPGQSPRRLIYLVSTLGSGVPDRFSGSGSGTDFTLKISRVEAEDVGVYYCMQLTHWPYTFGQGTKLEIK
[3]; 20th day after starting administration
  tumor volume: 487.34+109.07 mm^3
[3]; 20th day, no significant difference vs control
  tumor inhibition rate: 42.47%
